Experimental data reported in PubChem BioAssay AID1645866 (Buhrlage Lab, Dana-Farber Cancer Institute and Novartis …, 2021).
Calls of active or inactive are those of the source.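 How the source made its calls: active means in confirmatory dose-response testing, peak deubiquitinase inhibition of 30% or more; inactive means the rest.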

molecular target: Ubiquitin carboxyl-terminal hydrolase 28 (Homo sapiens) (UniProt Q96RU2); assay: Concentration-response biochemical assay confirming initial hits as inhibitors of ubiquitin-specific protease 28 (AID 1645866); conditions: purified USP28, ubiquitin-rhodamine fluorescence, 30 min
Sequence (Q96RU2 whole entry, looked up): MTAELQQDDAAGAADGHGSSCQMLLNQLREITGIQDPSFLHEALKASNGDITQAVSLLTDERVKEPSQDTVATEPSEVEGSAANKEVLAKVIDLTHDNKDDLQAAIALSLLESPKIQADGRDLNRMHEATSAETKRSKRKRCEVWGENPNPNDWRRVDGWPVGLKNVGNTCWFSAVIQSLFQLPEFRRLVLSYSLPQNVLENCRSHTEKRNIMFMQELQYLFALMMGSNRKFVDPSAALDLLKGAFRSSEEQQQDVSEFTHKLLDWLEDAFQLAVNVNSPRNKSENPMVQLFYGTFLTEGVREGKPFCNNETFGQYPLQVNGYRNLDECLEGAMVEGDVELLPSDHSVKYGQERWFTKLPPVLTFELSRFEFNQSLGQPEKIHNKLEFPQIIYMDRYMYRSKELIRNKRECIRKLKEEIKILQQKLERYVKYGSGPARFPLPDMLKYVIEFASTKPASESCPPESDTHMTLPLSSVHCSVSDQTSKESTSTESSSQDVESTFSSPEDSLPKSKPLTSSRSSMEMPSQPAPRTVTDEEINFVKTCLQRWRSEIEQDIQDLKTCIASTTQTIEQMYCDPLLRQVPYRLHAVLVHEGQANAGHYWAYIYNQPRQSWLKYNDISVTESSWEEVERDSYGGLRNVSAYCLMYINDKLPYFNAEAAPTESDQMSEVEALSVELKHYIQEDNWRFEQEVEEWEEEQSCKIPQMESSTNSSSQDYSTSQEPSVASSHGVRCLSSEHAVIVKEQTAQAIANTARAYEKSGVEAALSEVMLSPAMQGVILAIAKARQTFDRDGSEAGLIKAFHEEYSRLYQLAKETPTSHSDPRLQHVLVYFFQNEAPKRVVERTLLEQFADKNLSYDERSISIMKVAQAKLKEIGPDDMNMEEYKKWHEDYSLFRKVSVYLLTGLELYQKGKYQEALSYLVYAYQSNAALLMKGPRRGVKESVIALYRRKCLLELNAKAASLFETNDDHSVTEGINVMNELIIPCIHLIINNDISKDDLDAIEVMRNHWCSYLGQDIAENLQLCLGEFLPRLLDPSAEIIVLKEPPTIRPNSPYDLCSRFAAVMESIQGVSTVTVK

Structure (SMILES)	IC50
CC(=O)c1ccc(NC(=O)CSc2nc(-c3ccccc3)nc3c2COC(C)(C)C3)cc1	4.07 µM
CNC(=O)CC1NC(=O)c2csc(n2)-c2ccc(-c3nc(C4=NC(C(=O)N5CCCC5C(N)=O)CO4)cs3)nc2-c2csc(n2)-c2csc(n2)C(C(O)c2ccccc2)NC(=O)CNC(=O)c2nc(sc2COC)C(C(C)C)NC(=O)c2nc1sc2C (configuration not stated)	11.4 µM
CCOC(=O)c1ccc(S(=O)(=O)N2CCC(C(=O)OC(C)C(=O)Nc3cccc([N+](=O)[O-])c3)CC2)cc1 (configuration not stated)	9.35 µM
CCOc1ccc2nc(NC(=O)C3CCN(S(=O)(=O)c4ccc5c(c4)CC(C)N5C(C)=O)CC3)sc2c1 (configuration not stated)	> 50 µM (inactive)
Cc1cc(C(=O)N2CCOC3(CC=CCN(CCc4ccccc4)C3=O)C2)n2nccc2n1 (configuration not stated)	> 50 µM (inactive)
CCCc1nc2sc3c(NCCCN4CCOCC4)ncnc3c2c2c1CCC2	0.743 µM
CCCC(=O)Nc1ccc(SCc2nnc(-c3ccccc3)o2)cc1	12.7 µM
NC(=O)c1nc(-c2ccccn2)nc2c1[nH]c(=O)n2-c1ccc2c(c1)OCO2	6.72 µM
CC(OC(=O)c1cn(-c2ccccc2)nc1-c1cccnc1)C(=O)Nc1cccc(S(=O)(=O)N(C)C)c1 (configuration not stated)	30.9 µM
COc1ccccc1CNC(=O)CCCn1c(=O)c2ccccc2n(CC(=O)N2CCN(c3ccccc3)CC2)c1=O	28.8 µM
CCc1ccccc1NC(=O)c1cc(-c2ccccn2)n[nH]1	46.1 µM
O=C(Nc1cccc2ccccc12)N1CCC(c2nc3c(nnn3Cc3ccc(F)cc3)c(=O)[nH]2)CC1	36.1 µM
COc1ccc(-c2cc3nc([C@@H](C)NC(=O)c4ccc5c(c4)OCO5)nn3cn2)cc1	35.1 µM
O=C(O)C1CCN(Cc2c(-c3ccco3)nc3ccc(Cl)cn23)CC1	> 50 µM (inactive)
Fc1ccccc1Cc1nc(-c2ccc3nncn3c2)no1	9.69 µM
O=[N+]([O-])c1ccccc1C(c1c[nH]c2ccccc12)c1c[nH]c2ccccc12	23.8 µM
Cc1cccc(C(=O)Nc2ccccc2Sc2nc3c(c(=O)n(C)c(=O)n3C)n2C)c1	42.6 µM
Cc1ccc2cc(CCNC(=O)c3cccc(Br)c3)c(=O)[nH]c2c1	37.2 µM
CC1CCN(C(=O)c2cn(-c3cc(N4CCC(C)CC4)ncn3)cn2)CC1	15.1 µM
Cc1ccc(C)c(NS(=O)(=O)c2cc(-c3cnc(C4CC4)o3)ccc2C)c1	34.7 µM
Cc1cccc(NC(=O)CSc2ncnc3c2sc2nc(CC(C)C)c4c(c23)CCC4)c1	6.42 µM
COc1ccccc1CC(=O)Nc1nc2ccccc2[nH]1	37.1 µM
Cc1nc(C(=O)N[C@@H](C)C(=O)NCc2ccc3c(c2)OCO3)cc2c1[nH]c1ccccc12	22.5 µM
NS(=O)(=O)c1ccc(NC(=O)Cn2cnc3cc([N+](=O)[O-])ccc3c2=O)cc1	19.9 µM

Structure (SMILES)	IC50
CN1CCN(C(=O)c2ccn(-c3ccc4ccc(-c5cnn(C)c5)cn34)n2)CC1	> 50 µM (inactive)
COC(=O)CC1CC23OC2(C(=O)c2c(O)cccc2C3=O)C(C)O1 (configuration not stated)	3.55 µM
Cc1nc(-c2ccc(C(=O)NCc3ccc(F)cc3)cc2)cs1	36.7 µM
Cc1ccc(Cl)cc1NC(=O)c1cc(-c2ccccn2)n[nH]1	13.4 µM
COc1cc2c(c(OCC(=O)Nc3ccc4c(c3)OCCO4)c1)C(=O)O[C@@H](C)CCCC(=O)CCCCC2	20.7 µM
Fc1ccc(Nc2nc(Nc3cccc(F)c3)nc3nccnc23)cc1	> 50 µM (inactive)
COc1cc(OC)c(NC(=O)Cn2c(=O)n(Cc3ccccc3Cl)c(=O)c3cc(OC)c(OC)cc32)cc1Cl	3.28 µM
COc1ccc(CNC(=O)CN2C(=O)CC(c3ccccc3)=Nc3ccccc32)cc1	11.9 µM
Cc1cccc(NC(=O)c2nc(N3CCSCC3)c3cnn(C)c3n2)c1	> 50 µM (inactive)
Cc1ccc(-c2c(C(=O)Nc3ccc(S(N)(=O)=O)cc3)oc(=O)c3ccccc23)cc1	30.5 µM
CCOC(=O)c1nc(Nc2ccc(OC)c(Cl)c2)c2ccccc2n1	26.5 µM
Cc1ccc2[nH]c3c(=O)n(CC4CCCO4)cnc3c2c1 (configuration not stated)	18 µM
CCn1c(=O)c(=O)[nH]c2cc(C(=O)Nc3cccc(-c4csc(C)n4)c3)ccc21	1.99 µM
CC1(C)CC(n2[nH]c(=O)c3c2NC(=O)CSC3c2ccc(OCc3ccccc3)cc2)CCO1 (configuration not stated)	17.7 µM
O=C(O)Cc1ccc(Nc2nc3ccccc3n3nnnc23)cc1	> 50 µM (inactive)
O=C(NCc1ccc(Cl)cc1)Nc1cccc2ccccc12	40.4 µM
COc1ccc(-c2nc(-c3nnn(Cc4ccc(F)cc4)c3C)no2)c(OC)c1	5.4 µM
COc1ccc(OC)c(NC(=O)Cn2c(=O)n(CC3CCC(C(=O)NCCc4ccccc4)CC3)c(=O)c3ccccc32)c1 (configuration not stated)	4.61 µM
N#Cc1cn(CC(=O)N2CCc3ccccc32)c2ccccc12	17.2 µM
CN(C)C(=O)CSc1nnc(-c2cccc(Cl)c2)n1-c1ccc(Cl)c(C(F)(F)F)c1	5.78 µM
CC(C)(C)C(=O)NC(c1ccccc1)c1nnc(N2CCOCC2)o1 (configuration not stated)	> 50 µM (inactive)
Cc1cc(O)c2c3c(c(O)c4c(c13)O[C@@H](C)C4(C)C)C(=O)C2=O	23.5 µM
CC1(O)CC(=O)c2c(cc3cc(O)cc(O)c3c2O)C1 (configuration not stated)	0.0671 µM
Cc1ccc(C(=O)Nc2ccc3c(c2)C(=O)N(C)c2ccccc2O3)cc1C	2.75 µM

Structure (SMILES)	IC50
N#Cc1ccc(Cc2ncc(C(F)(F)F)cc2Cl)s1	8.21 µM
Cc1nc(Nc2ncc(C)s2)cc(C2CN(C(=O)Cc3ccccc3)CCO2)n1 (configuration not stated)	43.8 µM
CCOc1ccccc1NC(=O)Cn1ccn2nc(-c3ccc(OC)cc3)cc2c1=O	16.5 µM
Cc1ccc(Cn2c(=O)c3ccccc3n3c(CCC(=O)N4CCN(c5ccccn5)CC4)nnc23)cc1	5.55 µM
c1ccc(Cc2nn3c(-c4cccnc4)nnc3c3ccccc23)cc1	2.53 µM
CCCc1nc2sc3c(NCCN4CCOCC4)ncnc3c2c2c1CCC2	0.592 µM
O=C(CNc1nc(Nc2ccccc2F)nc(Nc2ccccc2F)n1)Nc1ccccc1	27 µM
N#Cc1ccc(NC(=O)COC(=O)c2ccc3ccccc3n2)cc1	> 50 µM (inactive)
COc1ccc(C(=O)CSc2nnc(-c3cccnc3)n2-c2ccccc2)cc1	> 50 µM (inactive)
COc1ccc(S(=O)(=O)N(C)Cc2cccs2)cc1OC	17.4 µM
Cc1ccc(Nc2nc(Nc3cccc(Cl)c3)nc3nccnc23)cc1	> 50 µM (inactive)
Cc1cccc(NC(=O)CSc2nnc(-c3n[nH]c4c3CCC4)n2N)c1	26.6 µM
COc1cc2c(cc1OC)-c1cc(NCc3cc(OC)c(OC)c(OC)c3)nc(=O)n1CC2	> 50 µM (inactive)
N#Cc1c(Cl)cccc1Oc1ccc(S(=O)(=O)N2CCC(O)CC2)cc1	19.5 µM
O=C(NC(Cc1ccccc1)c1nc2ccccc2[nH]1)C1CC1 (configuration not stated)	> 50 µM (inactive)
CCOc1ccc(NC(=O)c2nc3c(=O)[nH]c4cc(C)ccc4n3n2)cc1	47.5 µM
O=[N+]([O-])c1ccc2c(c1)nc1n2CCN(Cc2ccco2)C1	> 50 µM (inactive)
CCc1noc(Cn2cnc3c4ccccc4n(CC(=O)NC4CCCCC4)c3c2=O)n1	40 µM
O=C(CNC(=O)OCc1ccccc1)Nc1ccc(Br)cc1C(=O)c1ccccc1Cl	11.3 µM
Cn1c(-c2nnc(SCC(=O)NCCc3ccccc3)o2)cc2ccccc21	23.7 µM
CCCC(=O)Nc1nc2ccc(CCC(=O)NCc3ccc(F)cc3)cc2s1	25.8 µM
CC1Oc2ccccc2C(=O)N(Cc2ccc([N+](=O)[O-])cc2)C1=O (configuration not stated)	12.5 µM
CNC(=O)c1cc2nc(N(C)C)n(-c3ccc(F)cc3)c2s1	11.6 µM
c1ccc(CN2CCN(c3nc4ccccc4n4nnnc34)CC2)cc1	> 50 µM (inactive)
